The record followed here is patent US20090270350A1, “Pyridinone Pyrazole Urea and Pyrimidinone Pyrazole Urea Derivatives” (PFIZER INC., priority 2006, published 2009).

p38α, sequence (Q16539 whole entry): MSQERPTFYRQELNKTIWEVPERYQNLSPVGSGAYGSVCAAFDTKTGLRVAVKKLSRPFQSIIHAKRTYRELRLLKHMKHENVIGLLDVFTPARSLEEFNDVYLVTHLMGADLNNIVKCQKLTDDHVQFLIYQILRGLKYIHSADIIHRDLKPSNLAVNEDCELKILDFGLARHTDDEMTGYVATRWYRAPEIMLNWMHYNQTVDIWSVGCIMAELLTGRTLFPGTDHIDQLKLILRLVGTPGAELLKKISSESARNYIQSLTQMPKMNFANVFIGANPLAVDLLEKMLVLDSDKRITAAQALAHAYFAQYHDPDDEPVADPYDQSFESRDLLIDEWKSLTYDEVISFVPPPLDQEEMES

In the assay the target is p38α (Homo sapiens, UniProt Q16539). Description: p38α/MK2 cascade assay. Format: biochemical. The note with it: Table 1; inhibitors preincubated with p38α for 40 minutes; phosphorylation of Hsp27 peptide by MK-2, Caliper LabChip 3000; read-out: p38a/MK2 Cascade 40 min Pre-Incuabtion (% Inhibition): IC50. How it is done:
The ability of compounds to inhibit activated p38α was determined in a p38α/MK-2 cascade assay format. The kinase activity of p38α is determined by its ability to phosphorylate/activate nonactive MK2 (54-400). Activation of MK-2 by p38α is measured by following the phosphorylation of a MK-2 specific peptide, Hsp27 peptide (FITC-KKKALSRQLSVAA). The phosphorylation of the Hsp27 peptide was quantified using the Caliper LabChip 3000. The kinase reactions were carried out in 20 mM HEPES pH 7.5, 10 mM MgCl2, 0.0005% Tween-20, 0.01% BSA, 1 mM DTT, and 2% DMSO. The inhibitors were varied between 1000-0.05 nM, while the Hsp27 peptide substrate, MgATP, and nonactive MK-2 (54-400) were held constant at 0.5 µM, 5 µM, and 1 nM, respectively. Inhibitors were preincubated with p38α for 40 minutes prior to initiating the reaction with peptide, MgATP, and MK-2. The kinase reactions were quenched after 60 minutes by the addition of stop buffer (180 mM HEPES, 30 mM EDTA, and 0.2% Coating Reagent-3).
The above protocol assay was used to determine the IC50 values for some of the compounds in the above Examples.
IC50 values were determined for the compounds listed in Table 2, using the same p38α/MK2 cascade assay used to determine the IC50 values for the compounds in Table 1. The compounds of Table 2 were prepared using methods similar to those listed in the Examples for compounds of Table 1.
On to `CCc1c(OCc2ccccc2CNC(=O)Nc2cc(C(C)(C)C)nn2-c2cccc(OC)c2)ncn(Cc2ccc(OC)cc2)c1=O` [Example 115, 1-[3-tert-butyl-1-(3-methoxyphenyl)-1H-pyrazol-5-yl]-3-[2-({[5-ethyl-1-(4-methoxybenzyl)-6-oxo-1,6-dihydropyrimidin-4-yl]oxy}methyl)benzyl]urea], for which the IC50 turned out to be 25.8 nM.

In the case of `CCc1c(OCc2ccccc2CNC(=O)Nc2cc(C(C)(C)C)nn2-c2cccc(F)c2)ncn(Cc2ccc(OC)cc2)c1=O` [Example 116, 1-[3-tert-butyl-1-(3-fluorophenyl)-1H-pyrazol-5-yl]-3-[2-({[5-ethyl-1-(4-methoxybenzyl)-6-oxo-1,6-dihydropyrimidin-4-yl]oxy}methyl)benzyl]urea], the IC50 was 10.1 nM.

In the case of `COc1ccc(Cn2c(C)cc(OCc3ccccc3CNC(=O)Nc3cc(C(C)(C)C)nn3-c3cccc(F)c3)c(Br)c2=O)c(OC)c1` [Example 117, 1-[2-({[3-bromo-1-(2,4-dimethoxybenzyl)-6-methyl-2-oxo-1,2-dihydropyridin-4-yl]oxy}methyl)benzyl]-3-[3-tert-butyl-1-(3-fluorophenyl)-1H-pyrazol-5-yl]urea], the IC50 was determined as 15.7 nM.

`COc1cccc(-n2nc(C(C)(C)C)cc2NC(=O)NCc2ccccc2COc2cc(C)n(Cc3ccc(OC)cc3OC)c(=O)c2Br)c1` [Example 119, 1-[2-({[3-bromo-1-(2,4-dimethoxybenzyl)-6-methyl-2-oxo-1,2-dihydropyridin-4-yl]oxy}methyl)benzyl]-3-[3-tert-butyl-1-(3-methoxyphenyl)-1H-pyrazol-5-yl]urea]: the IC50 came to 11.9 nM.

Turning to `COc1ccc(Cn2c(C)cc(OCc3ccccc3CNC(=O)Nc3cc(C(C)(C)C)nn3-c3ccccc3)c(Br)c2=O)c(OC)c1` [Example 120, 1-[2-({[3-bromo-1-(2,4-dimethoxybenzyl)-6-methyl-2-oxo-1,2-dihydropyridin-4-yl]oxy}methyl)benzyl]-3-(3-tert-butyl-1-phenyl-1H-pyrazol-5-yl)urea], the IC50 was 15.5 nM.

On to `COc1ccc(Cn2c(C)cc(OCc3ccccc3CNC(=O)Nc3cc(C(C)(C)C)nn3-c3ccc(F)cc3F)c(Br)c2=O)c(OC)c1` [Example 121, 1-[2-({[3-bromo-1-(2,4-dimethoxybenzyl)-6-methyl-2-oxo-1,2-dihydropyridin-4-yl]oxy}methyl)benzyl]-3-[3-tert-butyl-1-(2,4-difluorophenyl)-1H-pyrazol-5-yl]urea], for which the IC50 turned out to be 11 nM.

Turning to `COc1ccc(Cn2c(C)cc(OCc3ccccc3CNC(=O)Nc3cc(C(C)(C)C)nn3-c3ccc(C)cc3)c(Br)c2=O)c(OC)c1` [Example 122, 1-[2-({[3-bromo-1-(2,4-dimethoxybenzyl)-6-methyl-2-oxo-1,2-dihydropyridin-4-yl]oxy}methyl)benzyl]-3-[3-tert-butyl-1-(4-methylphenyl)-1H-pyrazol-5-yl]urea], the IC50 came to 15.4 nM.

As for `COc1cccc(-n2nc(C(C)(C)C)cc2NC(=O)NCc2ccccc2COc2cc(C)n(Cc3ccc(OC)cc3OC)c(=O)c2C)c1` [Example 123, 1-[3-tert-butyl-1-(3-methoxyphenyl)-1H-pyrazol-5-yl]-3-[2-({[1-(2,4-dimethoxybenzyl)-3,6-dimethyl-2-oxo-1,2-dihydropyridin-4-yl]oxy}methyl)benzyl]urea], the IC50 was 11.1 nM.

Take `COc1cccc(-n2nc(C(C)(C)C)cc2NC(=O)NCc2ccccc2COc2cc(C)n(Cc3ccccc3)c(=O)c2C)c1` [Example 128-B, 1-(2-{[(1-benzyl-3,6-dimethyl-2-oxo-1,2-dihydropyridin-4-yl)oxy]methyl}benzyl)-3-[3-tert-butyl-1-(3-methoxyphenyl)-1H-pyrazol-5-yl]urea]: the IC50 amounted to 12.5 nM.

For the compound `Cc1ccc(-n2nc(C(C)(C)C)cc2NC(=O)NCc2ccccc2COc2cc(C)n(Cc3ccccc3)c(=O)c2C)cc1` [Example 128-C, 1-(2-{[(1-benzyl-3,6-dimethyl-2-oxo-1,2-dihydropyridin-4-yl)oxy]methyl}benzyl)-3-[3-tert-butyl-1-(4-methylphenyl)-1H-pyrazol-5-yl]urea], the IC50 is 12.1 nM.

Consider `COC(=O)c1ccc(C)c(-n2c(C)cc(OCc3ccc(F)cc3CNC(=O)Nc3cc(C(C)(C)C)nn3-c3ccc(C)cc3)c(Cl)c2=O)c1` [Example 181, Methyl 3-{4-[(2-{[({[3-tert-butyl-1-(4-methylphenyl)-1H-pyrazol-5-yl]amino}carbonyl)amino]methyl}-4-fluorobenzyl)oxy]-3-chloro-6-methyl-2-oxopyridin-1(2H)-yl}-4-methylbenzoate], for which the IC50 stood at 3.31 nM.

Regarding `COC(=O)c1ccc(C)c(-n2c(C)cc(OCc3ccc(F)cc3CNC(=O)Nc3cc(C(C)(C)C)nn3-c3cccc(Cl)c3)c(Cl)c2=O)c1` [Example 182, Methyl 3-{4-[(2-{[({[3-tert-butyl-1-(3-chlorophenyl)-1H-pyrazol-5-yl]amino}carbonyl)amino]methyl}-4-fluorobenzyl)oxy]-3-chloro-6-methyl-2-oxopyridin-1(2H)-yl}-4-methylbenzoate], the IC50 came to 3.99 nM.

Consider `COC(=O)c1ccc(C)c(-n2c(C)cc(OCc3ccc(F)cc3CNC(=O)Nc3cc(C(C)(C)C)nn3-c3cccc(OC)c3)c(Cl)c2=O)c1` [Example 183, Methyl 3-{4-[(2-{[({[3-tert-butyl-1-(3-methoxyphenyl)-1H-pyrazol-5-yl]amino}carbonyl)amino]methyl}-4-fluorobenzyl)oxy]-3-chloro-6-methyl-2-oxopyridin-1(2H)-yl}-4-methylbenzoate], for which the IC50 stood at 2.26 nM.

On to `COC(=O)c1ccc(C)c(-n2c(C)cc(OCc3ccc(F)cc3CNC(=O)Nc3cc(C(C)(C)C)nn3-c3ccc(C)cc3)c(Br)c2=O)c1` [Example 185, methyl 3-{3-bromo-4-[(2-{[({[3-tert-butyl-1-(4-methylphenyl)-1H-pyrazol-5-yl]amino}carbonyl)amino]methyl}-4-fluorobenzyl)oxy]-6-methyl-2-oxopyridin-1(2H)-yl}-4-methylbenzoate], for which the IC50 was found to be 3.61 nM.

Consider `Cc1ccc(-n2nc(C(C)(C)C)cc2NC(=O)NCc2cc(F)ccc2COc2cc(C)n(-c3cc(C(=O)O)ccc3C)c(=O)c2Cl)cc1` [Example 186, 3-{4-[(2-{[({[3-tert-butyl-1-(4-methylphenyl)-1H-pyrazol-5-yl]amino}carbonyl)amino]methyl}-4-fluorobenzyl)oxy]-3-chloro-6-methyl-2-oxopyridin-1(2H)-yl}-4-methylbenzoic acid], for which the IC50 stood at 4.62 nM.

With `COc1cccc(-n2nc(C(C)(C)C)cc2NC(=O)NCc2cc(F)ccc2COc2cc(C)n(-c3cc(C(=O)O)ccc3C)c(=O)c2Cl)c1` [Example 189, 3-{4-[(2-{[({[3-tert-butyl-1-(3-methoxyphenyl)-1H-pyrazol-5-yl]amino}carbonyl)amino]methyl}-4-fluorobenzyl)oxy]-3-chloro-6-methyl-2-oxopyridin-1(2H)-yl}-4-methylbenzoic acid], the IC50 amounted to 2.55 nM.

Consider `Cc1ccc(-n2nc(C(C)(C)C)cc2NC(=O)NCc2cc(F)ccc2COc2cc(C)n(-c3cc(C(=O)NCCO)ccc3C)c(=O)c2Cl)cc1` [Example 190, 3-{4-[(2-{[({[3-tert-butyl-1-(4-methylphenyl)-1H-pyrazol-5-yl]amino}carbonyl)amino]methyl}-4-fluorobenzyl)oxy]-3-chloro-6-methyl-2-oxopyridin-1(2H)-yl}-N-(2-hydroxyethyl)-4-methylbenzamide], for which the IC50 worked out at 2.37 nM.

In the case of `Cc1ccc(-n2nc(C(C)(C)C)cc2NC(=O)NCc2cc(F)ccc2COc2cc(C)n(-c3cc(C(=O)NCCO)ccc3C)c(=O)c2Br)cc1` [Example 193, 3-{3-bromo-4-[(2-{[({[3-tert-butyl-1-(4-methylphenyl)-1H-pyrazol-5-yl]amino}carbonyl)amino]methyl}-4-fluorobenzyl)oxy]-6-methyl-2-oxopyridin-1(2H)-yl}-N-(2-hydroxyethyl)-4-methylbenzamide], the IC50 is 2.21 nM.

With `CNC(=O)c1ccc(C)c(-n2c(C)cc(OCc3ccc(F)cc3CNC(=O)Nc3cc(C(C)(C)C)nn3-c3cccc(Cl)c3)c(Cl)c2=O)c1` [Example 194, 3-{4-[(2-{[({[3-tert-butyl-1-(3-chlorophenyl)-1H-pyrazol-5-yl]amino}carbonyl)amino]methyl}-4-fluorobenzyl)oxy]-3-chloro-6-methyl-2-oxopyridin-1(2H)-yl}-N,4-dimethylbenzamide], the IC50 came out at 2.45 nM.

`Cc1ccc(C(=O)NCCO)cc1-n1c(C)cc(OCc2ccc(F)cc2CNC(=O)Nc2cc(C(C)(C)C)nn2-c2cccc(Cl)c2)c(Cl)c1=O` [Example 195, 3-{4-[(2-{[({[3-tert-butyl-1-(3-chlorophenyl)-1H-pyrazol-5-yl]amino}carbonyl)amino]methyl}-4-fluorobenzyl)oxy]-3-chloro-6-methyl-2-oxopyridin-1(2H)-yl}-N-(2-hydroxyethyl)-4-methylbenzamide]: the IC50 turned out to be 3.93 nM.
